Assay results reported in ChEMBL document CHEMBL1201862, “PubChem BioAssay data set” (2004).
Active and inactive are the calls of the source.

How the values were obtained:
[1] = biological target: T1, Voltage-gated N-type calcium channel alpha-1B subunit/Amyloid beta A4 precursor protein-binding family A member 1 (Homo sapiens, UniProt Q00975+Q02410); format: protein assay
[2] = biological target: T1, Voltage-gated N-type calcium channel alpha-1B subunit/Amyloid beta A4 precursor protein-binding family A member 1; format: protein assay; remark: listed apart in the source
[3] = A549 cell cytotoxicity, dose response, cytotoxicity control, plate reader, cherry-pick, antagonist series (AID 743412); format: functional, cell-based
[4] = inhibitors of firefly luciferase expression or activity, dose response, H4 neuroglioma cells, luminescence (AID 1990); format: functional, cell-based
[5] = HEK293 cell cytotoxicity, dose response, cytotoxicity control, plate reader, cherry-picked samples (AID 743446); format: functional, cell-based
[6] = HepG2 cell cytotoxicity, dose response, cytotoxicity control, plate reader, cherry-pick, antagonist series (AID 743416); format: functional, cell-based
[7] = Luminescence Cell-Based Dose Response HTS to Identify Inhibitors of 5'UTR Stem-Loop Driven Prion Protein mRNA Translation in H4 Neuroglioblastoma Cells. [Related pubchem assays: 1827 (Project Summary), 1813 (Primary HTS)]; format: functional
[8] = biological target: T2, Microphthalmia-associated transcription factor (Homo sapiens, UniProt O75030); assay: TRPM1 promoter luciferase signal decrease, dose response, MITF inhibitor project, cell-based, SK-MEL-5, cherry-picked, set 3 (AID 493073); format: functional
T2 sequence (O75030 whole entry): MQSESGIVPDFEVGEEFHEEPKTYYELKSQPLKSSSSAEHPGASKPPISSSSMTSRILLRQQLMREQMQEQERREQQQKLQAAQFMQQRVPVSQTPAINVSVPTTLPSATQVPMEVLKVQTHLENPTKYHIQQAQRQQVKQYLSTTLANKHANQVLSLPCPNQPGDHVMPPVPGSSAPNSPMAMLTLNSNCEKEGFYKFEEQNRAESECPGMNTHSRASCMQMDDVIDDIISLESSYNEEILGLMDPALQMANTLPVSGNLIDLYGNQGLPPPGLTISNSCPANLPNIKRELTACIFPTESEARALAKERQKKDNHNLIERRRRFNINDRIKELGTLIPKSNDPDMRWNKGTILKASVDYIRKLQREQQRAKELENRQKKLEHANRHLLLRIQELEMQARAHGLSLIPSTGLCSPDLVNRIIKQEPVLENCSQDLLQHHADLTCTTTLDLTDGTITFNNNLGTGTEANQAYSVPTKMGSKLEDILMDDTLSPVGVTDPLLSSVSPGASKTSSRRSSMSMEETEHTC

[9] = inhibitors of SNCA 5'UTR-driven reporter translation, confirmation, H4 neuroglioma cells, luminescence (AID 1988); format: functional, cell-based
[10] = LGR2 antagonists, dose response, cell-based, HEK293, CRE-luciferase reporter, cherry pick, set 2 (AID 743343); format: functional;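 note: transfected cells were stimulated with diluted bursicon conditioned medium after compound addition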
[11] = MC4R antagonists, dose response, counter-screen for LGR2 antagonist project, cell-based, plate reader, cherry pick (AID 743444); format: functional;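 note: transfected HEK 293 cells stimulated with alpha-MSH peptide; potency of inhibitors of the alpha-MSH evoked signal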
[12] = biological target: Prothrombin (Homo sapiens, UniProt P00734); assay: Thrombin 1536 HTS Dose Response Confirmation. [Related pubchem assays: 1046 (Thrombin 1536 HTS; hits were confirmed in this assay)]; format: functional
[13] = biological target: Ephrin type-A receptor 4 (Mus musculus, UniProt Q03137); assay: inhibitors of EphA4 binding to KYL peptide, primary screen, biochemical, colorimetric, mouse EphA4 (AID 689); format: functional
Ephrin type-A receptor 4, sequence (Q03137 whole entry, the tested form may be a part): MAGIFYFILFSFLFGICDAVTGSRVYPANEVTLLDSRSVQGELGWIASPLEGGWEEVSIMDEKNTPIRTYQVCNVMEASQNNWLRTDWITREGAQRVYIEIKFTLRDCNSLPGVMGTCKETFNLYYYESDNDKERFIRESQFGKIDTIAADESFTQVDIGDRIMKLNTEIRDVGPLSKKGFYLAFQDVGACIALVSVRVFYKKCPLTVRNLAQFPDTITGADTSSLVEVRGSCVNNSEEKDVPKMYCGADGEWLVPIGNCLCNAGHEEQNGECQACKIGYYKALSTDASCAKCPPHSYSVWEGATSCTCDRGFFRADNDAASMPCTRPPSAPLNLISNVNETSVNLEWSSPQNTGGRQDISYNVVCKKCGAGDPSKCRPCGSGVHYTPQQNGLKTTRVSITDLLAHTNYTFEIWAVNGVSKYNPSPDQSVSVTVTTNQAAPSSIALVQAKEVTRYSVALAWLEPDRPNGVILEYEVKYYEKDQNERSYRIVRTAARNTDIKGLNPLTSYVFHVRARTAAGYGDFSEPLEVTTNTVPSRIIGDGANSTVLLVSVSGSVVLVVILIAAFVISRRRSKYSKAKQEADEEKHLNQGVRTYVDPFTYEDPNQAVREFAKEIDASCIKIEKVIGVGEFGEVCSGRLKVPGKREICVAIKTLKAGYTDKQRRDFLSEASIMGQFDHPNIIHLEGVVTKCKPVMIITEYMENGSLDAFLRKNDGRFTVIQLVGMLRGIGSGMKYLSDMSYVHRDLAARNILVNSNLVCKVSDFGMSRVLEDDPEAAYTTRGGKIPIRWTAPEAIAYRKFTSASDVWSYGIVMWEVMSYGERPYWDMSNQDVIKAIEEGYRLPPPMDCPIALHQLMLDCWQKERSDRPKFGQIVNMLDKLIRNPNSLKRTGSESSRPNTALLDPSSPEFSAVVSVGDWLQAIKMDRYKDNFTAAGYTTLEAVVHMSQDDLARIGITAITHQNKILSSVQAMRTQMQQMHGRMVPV

[14] = CEM21 lymphoblast cell cytotoxicity, dose response, cytotoxicity control for viral fusion inhibitor project, CellTiter-Glo luminescence, cherry-picked (AID 652042); format: functional, cell-based;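 note: potency for signal decrease meaning cytotoxicity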
[15] = inhibitors of clade B AD8 Env fusion, dose response, cell-based, cherry-pick (AID 652062); format: functional;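 note: luciferase signal from cell-cell fusion driven by HIV-1 clade B AD8 Env; potency is for inhibitors of fusion seen as a drop in luminescence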
[16] = ZM109 Env clade C HIV-1 fusion inhibitors, dose response, HeLa effector, CEM target cells, luciferase, cherry-pick (AID 652058); format: functional, cell-based
[17] = inhibitors of HIV Env-driven cell fusion, dose response, cherry-pick (AID 652057); format: functional, cell-based
[18] = off-target signal loss in HeLa-CEM21 co-culture – HeLa F-luc CTL cells, cherry-picked, counter-screen for HIV-1 Env fusion inhibitor project, dose response (AID 652040); format: functional, cell-based;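 note: potency for signal decrease marking cytotoxic or nonspecific inhibition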
[19] = intracellular Trypanosoma cruzi inhibitors in host cells – cell-based, plate reader, cherry-pick samples, set 3, dose response (AID 651818); format: functional;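 note: compounds incubated with infected cells for about four days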
[20] = biological target: T3, Trace amine-associated receptor 1 (Homo sapiens, UniProt Q96RJ0); assay: Counterscreen for agonists of the human trace amine associated receptor 1 (hTAAR1): Fluorescence-based cell-based high throughput dose response assay to identify hTAAR1 agonist that also desensitize TAAR1 receptor response.; format: functional
T3 sequence (Q96RJ0 whole entry): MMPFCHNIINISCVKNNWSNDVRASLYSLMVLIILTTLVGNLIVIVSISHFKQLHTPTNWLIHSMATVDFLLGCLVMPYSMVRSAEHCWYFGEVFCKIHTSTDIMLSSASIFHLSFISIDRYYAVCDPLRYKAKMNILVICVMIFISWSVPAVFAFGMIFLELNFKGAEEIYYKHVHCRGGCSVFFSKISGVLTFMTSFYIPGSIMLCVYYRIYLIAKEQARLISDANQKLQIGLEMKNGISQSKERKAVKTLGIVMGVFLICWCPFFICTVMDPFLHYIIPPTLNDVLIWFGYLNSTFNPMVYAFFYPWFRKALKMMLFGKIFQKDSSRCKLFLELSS

[21] = biological target: T3, Trace amine-associated receptor 1; assay: Fluorescence-based cell-based high throughput dose response assay to identify agonists of the human trace amine associated receptor 1 (TAAR1).; format: functional
[22] = cells; format: functional, cell-based
[23] = cells; format: functional, cell-based; remark: listed apart in the source
[24] = cytotoxicity in OVCAR8 ovarian cancer cells, dose response, PAX8 project, cell-based, plate reader, dry powder samples (AID 743197); format: functional; conditions: OVCAR-8
[25] = NIH:OVCAR-3 ovarian cancer cell cytotoxicity, dose response, PAX8 inhibitor project, plate reader, dry powder samples (AID 743044); format: functional, cell-based
[26] = biological target: Paired box protein Pax-8 (Homo sapiens, UniProt Q06710); assay: inhibitors of PAX8-driven TPO luciferase reporter, dose response, RMG-I cells, cherry-pick (AID 687027); format: functional, cell-based;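 note: luciferase reporter driven by Pax8 target thyroperoxidase promoter measured by SteadyGlo luminescence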
Paired box protein Pax-8, sequence (Q06710 whole entry): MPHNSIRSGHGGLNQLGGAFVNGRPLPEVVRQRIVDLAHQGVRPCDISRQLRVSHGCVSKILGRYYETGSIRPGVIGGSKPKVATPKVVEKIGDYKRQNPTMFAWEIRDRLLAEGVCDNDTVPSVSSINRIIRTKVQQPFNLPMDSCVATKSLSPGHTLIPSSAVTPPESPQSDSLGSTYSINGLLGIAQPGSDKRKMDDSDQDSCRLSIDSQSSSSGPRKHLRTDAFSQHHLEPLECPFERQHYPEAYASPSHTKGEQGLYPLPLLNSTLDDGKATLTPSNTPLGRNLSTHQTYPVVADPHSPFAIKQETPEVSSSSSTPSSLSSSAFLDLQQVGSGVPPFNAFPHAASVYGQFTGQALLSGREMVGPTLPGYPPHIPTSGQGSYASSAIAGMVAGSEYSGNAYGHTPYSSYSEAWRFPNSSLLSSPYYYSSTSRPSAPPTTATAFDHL

[27] = IGROV1 ovarian cancer cell cytotoxicity, dose response, PAX8 inhibitor project, plate reader, dry powder samples (AID 743043); format: functional, cell-based; conditions: IGROV-1

T1 sequence (Q00975 whole entry): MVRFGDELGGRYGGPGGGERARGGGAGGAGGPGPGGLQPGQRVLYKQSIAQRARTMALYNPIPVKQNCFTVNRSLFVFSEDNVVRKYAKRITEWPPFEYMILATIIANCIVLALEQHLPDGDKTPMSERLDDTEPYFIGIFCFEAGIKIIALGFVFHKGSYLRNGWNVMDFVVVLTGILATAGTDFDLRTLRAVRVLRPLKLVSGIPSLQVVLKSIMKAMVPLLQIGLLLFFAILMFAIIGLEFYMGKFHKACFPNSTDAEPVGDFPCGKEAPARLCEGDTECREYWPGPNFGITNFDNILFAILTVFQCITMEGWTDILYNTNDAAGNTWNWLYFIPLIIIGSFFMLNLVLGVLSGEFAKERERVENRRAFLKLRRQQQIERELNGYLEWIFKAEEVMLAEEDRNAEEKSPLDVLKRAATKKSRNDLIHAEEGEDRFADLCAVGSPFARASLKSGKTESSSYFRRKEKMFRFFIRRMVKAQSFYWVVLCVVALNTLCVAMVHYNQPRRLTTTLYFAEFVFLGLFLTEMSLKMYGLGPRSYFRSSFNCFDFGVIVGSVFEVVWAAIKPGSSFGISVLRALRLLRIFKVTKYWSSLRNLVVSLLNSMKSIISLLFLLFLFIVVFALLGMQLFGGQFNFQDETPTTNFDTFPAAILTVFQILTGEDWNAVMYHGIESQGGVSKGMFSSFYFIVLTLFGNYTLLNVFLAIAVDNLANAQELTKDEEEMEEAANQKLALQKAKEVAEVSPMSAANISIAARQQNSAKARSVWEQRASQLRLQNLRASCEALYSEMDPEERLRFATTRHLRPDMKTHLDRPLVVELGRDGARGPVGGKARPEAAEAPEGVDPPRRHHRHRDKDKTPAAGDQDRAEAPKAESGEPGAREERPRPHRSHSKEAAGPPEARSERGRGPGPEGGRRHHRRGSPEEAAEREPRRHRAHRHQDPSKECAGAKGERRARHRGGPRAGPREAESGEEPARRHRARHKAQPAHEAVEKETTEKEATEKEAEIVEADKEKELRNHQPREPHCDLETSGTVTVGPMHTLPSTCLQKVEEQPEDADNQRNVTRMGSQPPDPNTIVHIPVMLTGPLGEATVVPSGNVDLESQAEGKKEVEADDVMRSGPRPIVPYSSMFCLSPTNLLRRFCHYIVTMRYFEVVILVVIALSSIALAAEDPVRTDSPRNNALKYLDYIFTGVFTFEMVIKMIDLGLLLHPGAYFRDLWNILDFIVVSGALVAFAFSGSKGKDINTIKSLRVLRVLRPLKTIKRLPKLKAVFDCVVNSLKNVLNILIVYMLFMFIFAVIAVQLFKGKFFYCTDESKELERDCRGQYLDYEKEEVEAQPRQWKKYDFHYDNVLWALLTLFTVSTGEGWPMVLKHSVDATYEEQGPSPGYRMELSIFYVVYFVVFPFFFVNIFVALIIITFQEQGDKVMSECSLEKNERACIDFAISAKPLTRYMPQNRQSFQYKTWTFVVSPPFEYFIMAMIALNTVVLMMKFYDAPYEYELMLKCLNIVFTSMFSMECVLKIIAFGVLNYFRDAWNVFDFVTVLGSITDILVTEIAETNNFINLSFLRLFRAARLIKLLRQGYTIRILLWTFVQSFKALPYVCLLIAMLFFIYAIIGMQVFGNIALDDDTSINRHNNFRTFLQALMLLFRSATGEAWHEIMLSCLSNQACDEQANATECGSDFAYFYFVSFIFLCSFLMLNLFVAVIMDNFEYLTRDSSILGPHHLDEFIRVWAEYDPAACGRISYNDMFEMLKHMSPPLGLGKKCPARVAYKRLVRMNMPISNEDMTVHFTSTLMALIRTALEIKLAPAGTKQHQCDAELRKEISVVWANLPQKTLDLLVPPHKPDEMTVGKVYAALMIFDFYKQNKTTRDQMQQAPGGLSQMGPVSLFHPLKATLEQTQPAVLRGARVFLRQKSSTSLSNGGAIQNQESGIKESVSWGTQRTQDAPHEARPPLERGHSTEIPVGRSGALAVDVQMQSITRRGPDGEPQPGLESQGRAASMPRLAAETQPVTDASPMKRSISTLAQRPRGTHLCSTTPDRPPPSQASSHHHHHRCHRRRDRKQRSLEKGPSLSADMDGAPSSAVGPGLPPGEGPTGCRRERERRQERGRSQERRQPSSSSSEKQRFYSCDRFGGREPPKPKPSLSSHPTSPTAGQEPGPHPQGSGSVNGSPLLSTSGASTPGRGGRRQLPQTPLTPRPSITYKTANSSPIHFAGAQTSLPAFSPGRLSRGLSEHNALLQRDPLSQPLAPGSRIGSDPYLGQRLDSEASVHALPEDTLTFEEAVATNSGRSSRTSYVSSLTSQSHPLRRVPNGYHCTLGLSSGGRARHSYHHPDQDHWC
T1 sequence (Q02410 whole entry): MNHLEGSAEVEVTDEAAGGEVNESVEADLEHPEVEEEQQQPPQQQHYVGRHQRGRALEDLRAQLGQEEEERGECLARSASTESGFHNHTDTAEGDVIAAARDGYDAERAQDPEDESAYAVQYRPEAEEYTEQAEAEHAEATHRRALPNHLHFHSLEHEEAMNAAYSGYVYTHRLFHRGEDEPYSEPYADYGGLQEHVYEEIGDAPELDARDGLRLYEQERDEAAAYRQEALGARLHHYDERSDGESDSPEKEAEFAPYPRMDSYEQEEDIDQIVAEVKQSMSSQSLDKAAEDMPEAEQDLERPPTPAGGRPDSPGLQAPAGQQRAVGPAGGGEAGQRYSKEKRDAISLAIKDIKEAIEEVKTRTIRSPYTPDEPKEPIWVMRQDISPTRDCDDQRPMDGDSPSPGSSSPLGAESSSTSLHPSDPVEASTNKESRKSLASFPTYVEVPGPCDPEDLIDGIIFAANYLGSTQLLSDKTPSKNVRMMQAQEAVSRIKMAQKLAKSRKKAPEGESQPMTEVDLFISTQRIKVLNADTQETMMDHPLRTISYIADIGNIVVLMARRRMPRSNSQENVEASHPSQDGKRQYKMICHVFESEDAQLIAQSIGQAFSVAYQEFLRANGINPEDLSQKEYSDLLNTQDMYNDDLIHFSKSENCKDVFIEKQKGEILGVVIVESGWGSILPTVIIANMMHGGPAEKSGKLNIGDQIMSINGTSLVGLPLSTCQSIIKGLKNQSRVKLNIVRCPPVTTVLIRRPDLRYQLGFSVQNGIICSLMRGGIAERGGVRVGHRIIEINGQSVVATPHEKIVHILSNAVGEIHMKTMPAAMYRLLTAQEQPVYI

For `Cc1ccc2[nH]c(=O)c(C=C3C(=O)NC(=S)NC3=O)cc2c1`, the IC50 [1] was 9.32 µM (active) and the IC50 [2] was 42.1 µM (active).

With `O=c1c2ccccc2cnn1CCOc1ccccc1` the AC50 [3] was 45.5 µM (active), the EC50 [4] was 4.07 µM (active) and the AC50 [5] was 48.8 µM (active). The AC50 [6] was > 52 µM (inactive), the EC50 [7] was 0.392 µM (active) and the AC50 [8] was 7.2 µM (active). The EC50 [9] was 1.97 µM (active), the AC50 [10] was 2.52 µM (active) and the AC50 [11] was 2.62 µM (active).

For `O=C(COC(=O)CCOc1ccccc1)Nc1ccc(Cl)cn1`, the IC50 [12] was 30.8 µM (active).

With `CC1=N/C(=C\c2ccc([N+](=O)[O-])cc2)C(=O)N1c1cc(Cl)ccc1C` the IC50 [13] was 3.45 µM (active).

With `COc1ccc(CC(=O)n2nc(-c3cccnc3)nc2N)cc1` the IC50 [12] was 0.259 µM (active).

With `CC(C)c1ccc(N(C(=O)c2csnn2)C(C(=O)NC2CCCC2)c2ccncc2)cc1` (configuration not stated) the AC50 [14] was 60.5 µM (active), the AC50 [15] was 1.76 µM (active) and the AC50 [16] was 0.654 µM (active). For the same compound, the AC50 [17] was 0.795 µM (active) and the AC50 [18] was 1.59 µM (active).

For `O=C(CN1CCN(C(=O)CNC(=O)c2ccc(-c3ccccc3)cc2)CC1)Nc1ccccc1Cl`, the AC50 [3] was 24.9 µM (active), the AC50 [5] was 30.1 µM (active) and the AC50 [6] was 31.7 µM (active). The AC50 [10] was 43.4 µM (active) and the AC50 [11] was 48.1 µM (active).

In the case of `C[C@H](CO)N1C[C@H](C)[C@H](CN(C)Cc2ccc(C(F)(F)F)cc2)Oc2ccc(NC(=O)Nc3ccc(F)cc3)cc2C1=O`, the AC50 [3] is reported as 23.1 µM (active), the AC50 [6] is reported as 28 µM (active) and the AC50 [10] is reported as 33.1 µM (active). For the same compound, the AC50 [19] was 5.6 µM (active) and the AC50 [11] was 26.4 µM (active).

For `COc1ccccc1CCn1cnc(-c2ccc(Br)cc2)c1CC(C)C`, the IC50 [20] was 7.08 µM (active), the EC50 [21] was 1.75 µM (active) and the IC50 [22] was 25.7 µM (inactive). For the same compound, the EC50 [23] was > 29.9 µM (inactive).

With `C[C@@H]1CN([C@@H](C)CO)C(=O)Cc2cc(NS(=O)(=O)c3ccc(F)cc3)ccc2O[C@H]1CN(C)Cc1ccc(C(F)(F)F)cc1` the AC50 [24] was 26.9 µM (active), the AC50 [25] was 19.7 µM (active) and the AC50 [26] was 4.76 µM (active). For the same compound, the AC50 [27] was 29.2 µM (active).

For `O=C(C[C@H]1C[C@@H]2c3cc(NC(=O)Nc4ccc(C(F)(F)F)cc4)ccc3O[C@@H]2[C@@H](CO)O1)NCc1ccc(Cl)cc1`, the AC50 [25] was 61.1 µM (active), the AC50 [26] was 7.85 µM (active) and the AC50 [27] was 40.9 µM (active).

In the case of `CCOc1ccc(C(=O)Nc2ccc(-c3nc4ccccc4[nH]3)cc2)cc1[N+](=O)[O-]`, the IC50 [1] is reported as 12.2 µM (active) and the IC50 [2] is reported as > 50 µM (inactive).
